Legend:
IRAK-1 = target: T1, IRAK-1 (Homo sapiens, UniProt P51617); test: Test for the inhibition of IRAK1 (autophosphorylation, flashplate); type: biochemical; settings: enzyme
T1 construct: His6 (N); Dr.Jaekel Pool B, 232Y08C1.IRK
Description: (§1) The experimental batches are carried out in a flashplate system with 384 wells/microtitre plate. In each case, in order to investigate the inhibition of the autophosphorylation activity of IRAK1, the IRAK1 sample His6-IRAK1 (5.1 nM), 1 μM ATP (with 0.25 μCi of ^33P-ATP/well) and the test substance in 50 μl of conventional experimental solution per well are incubated at 22° C. for 180 min. The test substances are employed in corresponding concentrations (if desired in a dilution series). The control is carried out without test substance. The reaction is stopped using standard methods and washed. The activity of the kinase is measured via the incorporated radioactivity in top count. In order to determine the non-specific kinase reaction (blank value), the experimental batches are carried out in the presence of 1 μM staurosporin. The radioactivity (decompositions per minute) of the blank value (no use of test substance in the presence of 1 μM staurosporin) is subtracted from all other radioactivity values. The controls (kinase activity without test substance) are set equal to 100 percent and all other radioactivity values (after subtracting the blank value) are expressed set in relation thereto (for example in % of the control). IC50 values (50% inhibition) are determined with the aid of statistics programs, such as, for example, RS1.

IRAK-4 [1] = target: T2, IRAK-4 (Homo sapiens, UniProt Q9NWZ3); test: Test for the inhibition of IRAK4 (flashplate, 33P-ATP); type: biochemical; settings: enzyme
T2 construct: His6 (N); Dr.Jaekel
T2 sequence (Q9NWZ3 1-460): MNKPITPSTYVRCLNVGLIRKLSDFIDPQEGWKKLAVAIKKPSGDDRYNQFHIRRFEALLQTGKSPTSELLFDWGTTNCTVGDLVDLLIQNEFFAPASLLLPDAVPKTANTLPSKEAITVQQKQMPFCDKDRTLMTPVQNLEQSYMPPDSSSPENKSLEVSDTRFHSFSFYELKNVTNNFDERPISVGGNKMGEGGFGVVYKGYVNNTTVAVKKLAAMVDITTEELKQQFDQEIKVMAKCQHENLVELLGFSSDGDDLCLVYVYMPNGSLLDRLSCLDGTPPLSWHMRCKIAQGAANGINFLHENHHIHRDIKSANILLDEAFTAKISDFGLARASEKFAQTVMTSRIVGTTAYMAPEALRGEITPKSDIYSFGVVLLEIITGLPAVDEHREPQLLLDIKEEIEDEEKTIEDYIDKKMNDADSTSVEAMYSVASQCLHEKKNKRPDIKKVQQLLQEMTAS
Description: as §1, with “case,” for “case, in order to investigate”, “the IRAK4 sample His6-IRAK4 (7.3 nM),” for “the inhibition of”, “the biotinylated substrate peptide STK substrate 1-biotin (Cisbio Bioassays, France) (300” for “the autophosphorylation activity of IRAK1, the IRAK1 sample His6-IRAK1 (5.1”, “nM), 10” for “nM), 1”

IRAK-4 [2] = target: T2, IRAK-4; test: IC50 IRAK-4 (cell); type: cell-based

T1 sequence (P51617 whole entry, species assumed): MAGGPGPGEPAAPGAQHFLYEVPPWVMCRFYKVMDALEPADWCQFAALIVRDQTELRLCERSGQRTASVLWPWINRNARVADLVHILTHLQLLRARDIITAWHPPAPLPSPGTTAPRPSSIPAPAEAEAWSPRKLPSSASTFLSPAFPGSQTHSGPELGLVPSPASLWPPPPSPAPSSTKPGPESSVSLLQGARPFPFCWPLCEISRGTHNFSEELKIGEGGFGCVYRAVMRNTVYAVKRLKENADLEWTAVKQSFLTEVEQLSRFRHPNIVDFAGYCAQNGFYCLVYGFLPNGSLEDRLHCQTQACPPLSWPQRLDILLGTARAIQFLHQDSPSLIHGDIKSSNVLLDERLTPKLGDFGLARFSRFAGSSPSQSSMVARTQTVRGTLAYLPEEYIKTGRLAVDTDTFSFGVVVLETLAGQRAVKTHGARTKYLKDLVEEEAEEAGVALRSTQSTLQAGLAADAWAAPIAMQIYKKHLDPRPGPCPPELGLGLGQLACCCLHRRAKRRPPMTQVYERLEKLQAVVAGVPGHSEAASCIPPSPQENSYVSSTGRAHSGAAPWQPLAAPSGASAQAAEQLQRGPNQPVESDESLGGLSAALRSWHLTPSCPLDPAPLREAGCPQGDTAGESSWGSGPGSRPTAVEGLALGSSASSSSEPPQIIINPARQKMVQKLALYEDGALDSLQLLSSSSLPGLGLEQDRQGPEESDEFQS

SMILES: COc1ccc2nc(-c3cc(-c4cnn(C(C)C)c4)cnc3N)[nH]c2c1 [Compound A107, 5-(1-Isopropyl-1H-pyrazol-4-yl)-3-(6-methoxy-1H-benzimidazol-2-yl)pyridin-2-ylamine]
- IC50 (IRAK-1): 1 to 100 nM
- IC50 (IRAK-4 [1]): 1 to 100 nM
- IC50 (IRAK-4 [2]): 100 to 10000 nM

SMILES: CCCn1cc(-c2cnc(N)c(-c3nc4ccccc4[nH]3)c2)cn1 [Compound A44]
- IC50 (IRAK-1): 100 to 10000 nM
- IC50 (IRAK-4 [1]): 100 to 10000 nM
- IC50 (IRAK-4 [2]): 100 to 10000 nM
